In patent US8618169B2, “Derivatives of N-phenylanthranilic acid and 2-benzimidazolone as potassium channel and/or neuron activity modulators” (Ramot at Tel-Aviv University Ltd., priority 2002, dated 2013):
Several values for one entry are separate records, joined by “and”; a condition that tells them apart may be missing. Identical values can stand only once.

Columns and labels:
rat cortical neurons = test: Evoked and spontaneous action potential activity of cultured rat cortical neurons, current-clamp; format: cell-based
[1] = tested on: electroshock-induced seizures; test: Maximal electroshock seizure (MES) test in ICR mice; format: in vivo
Procedure: All animals were treated in accordance with the Guide for the Care and Use of Laboratory Animals as adopted and promulgated by the U.S. National Institutes of Health. The procedures followed for experimentation and maintenance of the animals were approved by the animal research ethics committee of Tel Aviv University and in accordance with the Guide for the Care and Use of Laboratory Animals (1996. National Academy of Sciences, Washington D.C). […] electroshock were induced in adult mice by means of two transcorneal electrodes delivering an alternative current of 50 mA at 60 Hz for 0.2 sec using rodent shocker (Hugo Sachs Electronik, type 221). […] The tested compounds were dissolved in 0.9% saline were administered intraperitoneally either 30 minutes or 2 hours before the electroshock was performed. Animals failing to show tonic hind limb extension were scored as protected and were expressed in percentage.
Five groups of 10 ICR mice each received intraperitoneally saline (control) or meclofenamic acid (Compound 1) at 25 mg/kg, 50 mg/kg, 100 mg/kg and 150 mg/kg and were subjected 30 minutes later to an electric shock (50 mA, 0.2 second duration, 60 Hz).
In view of the strong depressing activity of Compound 6 on cortical neurons, the anticonvulsant activity in mice subjected to seizures produced by electroshock was examined, using the MES test described above. Compound 6 dissolved in saline was injected intraperitoneally (in a volume of 10 ml/kg) at doses ranging from 6 mg/kg to 20 mg/kg to ICR adult mice and its anticonvulsant activity was compared with saline. Twenty minutes after drug administration, seizures were produced by electroshock (50 mA, 0.2 second duration, 60 Hz).

KCNQ2/3 channels = biological target: T1, KCNQ2/3 channels (Homo sapiens, UniProt O43525+O43526); test: KCNQ2/3 current in transfected CHO cells, whole-cell patch-clamp; format: cell-based
T1 construct: expressed in transfected cells; host or cells: CHO cells

COX (Cyclooxygenase) = test: COX activity assay in C-26 cells (PGE2 radioimmunoassay); format: cell-based; details: for IC50: C-26 cells
Procedure: C-26 cells were plated on 24-well plates using RPMI medium. Different concentrations of the tested compound were added thereto and the cells were incubated for 30 minutes at 37° C. 30 μM exogenic arachidonic acid was then added and incubation was continued for 20 minutes (37° C.), so as to allow the cells to synthesize PGE2. Indomethacin was added thereafter (10 μM), to stop and completely block the activity. Then, the upper solution was removed into clean 24-wells. To the remained cells 100 μl NaOH (1M) were added to induce cytolysis, and the cells were left for later protein measurement. The solution removed to the new 24-well was used for a radioimmunoassay. The COX activity was estimated by calculating the ng PGE2/mg protein parameter.

M-current = biological target: T2, M-current (Rattus norvegicus, UniProt O88943+O88944); test: Native M-current of cultured rat cortical neurons, voltage-clamp; format: cell-based; details: cortical neurons, from −50 mV to −70 mV
T2 construct: the native M-current from pyramidal-like neurons was recorded; endogenous in cells; host or cells: primary cortical neurons from Sprague Dawley rat embryos (E18)

[2] = tested on: hippocampal pyramidal neurons; test: Spontaneous EPSCs of hippocampal pyramidal neuron cultures, voltage-clamp; format: cell-based; details: 10 μM
Procedure: To further determine the synaptic site of M-channel activation by Compound 6, its effects on spontaneous excitatory postsynaptic currents (EPSCs) that could be recorded from dense networks of hippocampal pyramidal neuron cultures was tested.
In FIGS. 30B and 30C, burst activity before (control), in the presence (Compound 6) and after (Wash) application of 5 μM (FIG. 30B) and 10 μM (FIG. 30C) Compound 6, as recorded at the voltage clamp mode is shown. In FIG. 30D, burst activity before (control) and in the presence of 25 μM Linopirdine is shown. In FIG. 30E, the normalized number of bursts appeared in 180 seconds time period for 5 μM (left panel), 10 μM (mid panel) of Compound 6 and 25 μM linopirdine (right panel) are shown. The holding potential was −70 mV. n=5-6.
Thus, using the voltage-clamp configuration of the patch-clamp technique, spontaneous EPSCs were isolated at −70 mV (holding potential) in the presence of 10 μM bicuculline and 10 μM picrotoxin to block GABAA receptor-mediated inhibitory postsynaptic currents. As is shown in FIG. 30A, under control conditions, the frequency of EPSCs is variable depending of the density of the hippocampal culture, ranging from 0.4 Hz to 2 Hz. […] However, the majority of the EPSCs measured at −70 mV under the experimental recording conditions are mediated by AMPA receptors as most of the currents are blocked by 10 μM NBQX, leaving only a small fraction EPSC sensitive to the NMDA receptor blocker DL-AP5 (FIG. 30A).

small DRG neurons = test: Spiking activity of DRG neurons, current-clamp; format: cell-based, mouse; details: 15 μM; 75 pA, 400 ms
Procedure: Dorsal root ganglion (DRG) neurons were dissected from 2-4 days-old ICR mice that were decapitated. DRGs were placed in Hank's balanced saline solution (HBSS) and were prepared by enzymatic dissociation. Briefly, cells were incubated for 30 minutes in 5 mg/ml dispase (Sigma), 2 mg/ml collagenase type 1A (Sigma) and 0.1 mg/ml DNase (Invitrogen/Gibco) in calcium and magnesium-free HBSS, and the ganglia were thereafter mechanically triturated with a firepolished glass Pasteur pipette. The ganglia were then centrifuged for 5 minutes at 80×g and resuspended in DMEM supplemented with 2 mM L-glutamine, 16.5 mM NaCO3, 6 g/l glucose, 5 ml penicillin/streptomycin and 10% fetal calf serum. For electrophysiological recording, dissociated neurons were plated on 13 mm glass coverslips previously coated with poly-D-lysine (1 mg/ml) and laminin (10 μg/ml) and were used after 2-6 days in culture.
For current measurements in CHO cells, recordings were performed 40 hours following transfection, using the whole-cell configuration of the patch-clamp technique [Hamill et al., Nature 294: 462-464 (1981)]. Signals were amplified using an Axopatch 200B patch-clamp amplifier (Axon Instruments, Foster City, Calif., USA), sampled at 2 kHz and filtered at 800 Hz via a 4-pole Bessel low pass filter. Data were acquired using pClamp 8.1 software (Axon Instruments, Foster City, Calif., USA) and an Elonex Pentium III computer in conjunction with a DigiData 1322A interface (Axon Instruments, Foster City, Calif., USA). The patch pipettes were pulled from borosilicate glass (Warner Instrument. Corp., Hamden, Conn., USA) with a resistance of 2-5 MΩ and were filled with (in mM): 130 KCl, 1 MgCl2, 5 K2ATP, 5 EGTA, 10 HEPES, adjusted with KOH at pH 7.4 (290 mOsm). The external solution contained (in [mM]): 140 NaCl, 4 KCl, 1.8 CaCl2, 1.2 MgCl2, 11 glucose, 5.5 HEPES, adjusted with NaOH at pH 7.4 (310 mOsm). Series resistances (3-13 MΩ) were compensated (75-90%) and periodically monitored. […]

KCNQ2/Q3 = KCNQ2/Q3 (Homo sapiens, UniProt O43525+O43526); test: Opener potency on KCNQ2/Q3 by leftward shift of half-activation potential (ΔV50) versus concentration, Hill fit; format: cell-based; design: expressed in transfected cells

## O=C(O)Cc1ccccc1Nc1c(Cl)cccc1Cl [Compound 2, diclofenac]
Rat cortical neurons; 25 μM
  effect on evoked action potentials: no spike could be evoked
  effect on spontaneous spiking activity: quickly and reversibly depressed
[1]; 25 mg/kg i.p., 30 minutes before electroshock
  % Protection: 10 (10) %
[1]; 50 mg/kg i.p., 30 minutes before electroshock, listed as Diclofenac
  % Protection: 64 (11) %
[1]; 50 mg/kg i.p., 30 minutes before electroshock, listed as diclofenac
  % Protection: 64%
[1]; 50 mg/kg i.p., 2 hours before electroshock
  % Protection: 50 (4) %
[1]; 100 mg/kg i.p., 30 minutes before electroshock
  % Protection: 92 (12) %
[1]; 100 mg/kg i.p., 2 hours before electroshock
  % Protection: 83 (6) %
[1]; 200 mg/kg i.p., 30 minutes before electroshock
  % Protection: 100 (15) %
[1]; 200 mg/kg i.p., 2 hours before electroshock
  % Protection: 100 (6) %
[1]; Mus musculus, intraperitoneal, 30 minutes or 2 hours before electroshock, 25-200 mg/kg, read-out: ED50 for suppression of tonic extension induced by MES
  ED50: 43 mg/kg

## Cc1c(Cl)cccc1Nc1ccccc1C(=O)NCCOCCO [Compound 3]
KCNQ2/3 channels; 25 μM, train protocol, stepped to −50 mV
  increase of the current amplitude: up to 299±47%
KCNQ2/3 channels; CHO cells
  opener action on recombinant KCNQ2/3 channels (in words): potent KCNQ2/3 potassium channel opening properties
COX (Cyclooxygenase)
  IC50: 113 nM and 114 nM

## O=C(NCCOCCO)c1ccccc1Nc1cccc(C(F)(F)F)c1 [Compound 4]
KCNQ2/3 channels; 50 μM, stepped from −85 mV to −40 mV
  increase of the current amplitude: > 1.5 fold
KCNQ2/3 channels; 50 μM, stepped from −85 mV to −50 mV
  increase of the current amplitude: more than 4 fold
KCNQ2/3 channels; CHO cells
  opener action on recombinant KCNQ2/3 channels (in words): potent KCNQ2/3 channel opener
Rat cortical neurons
  effect on evoked and spontaneous cortical neuron activity: depress
Rat cortical neurons; 20 μM
  effect on spontaneous spiking activity: markedly depressed
M-current
  negative shift in the threshold of M-current activation: approximately 20 mV
COX (Cyclooxygenase)
  IC50: > 30000 nM

## Cc1cccc(Nc2ccccc2C(=O)NCCOCCO)c1C [Compound 5]
KCNQ2/3 channels; 15 μM, at −40 and −50 mV
  effect on current amplitude: enhances the current amplitude
KCNQ2/3 channels; 25 μM, CHO cells
  leftward shift in the voltage-dependence of KCNQ2/3 activation: ~8 mV
KCNQ2/3 channels; 25 μM, CHO cells, control −30.9±4.1 mV
  V50 of KCNQ2/3 activation with compound: −38.3±1.9 mV
KCNQ2/3 channels; CHO cells
  effect on deactivation kinetics of KCNQ2/3 channels: slowed down
Rat cortical neurons
  effect on evoked and spontaneous cortical neuron activity: depress
Rat cortical neurons; 25 μM
  effect on evoked action potentials: reversibly inhibited
M-current
  negative shift in the threshold of M-current activation: approximately 20 mV
COX (Cyclooxygenase)
  COX inhibition activity (in words): do not exhibit COX inhibition activity
  IC50: 10300 nM

## O=C(Cc1ccccc1Nc1c(Cl)cccc1Cl)OCCOCCO [Compound 7]
KCNQ2/3 channels; CHO cells
  opener action on recombinant KCNQ2/3 channels (in words): potent KCNQ2/3 channel opener
Rat cortical neurons
  effect on evoked and spontaneous cortical neuron activity: depress
Rat cortical neurons; 20 μM
  effect on evoked and spontaneous spiking activity of cortical neurons: very potent inhibitory activity
M-current
  negative shift in the threshold of M-current activation: approximately 20 mV
COX (Cyclooxygenase)
  IC50: 11 nM and 11.7 nM

## COCCOCCOC(=O)Cc1ccccc1Nc1c(Cl)cccc1Cl [Compound 8]
KCNQ2/3 channels; CHO cells
  opener action on recombinant KCNQ2/3 channels (in words): only a weak opener action
Rat cortical neurons
  effect on evoked and spontaneous cortical neuron activity: depress
Rat cortical neurons; low concentrations (10 μM evoked, 5 μM spontaneous)
  effect on evoked and spontaneous spiking activity of cortical neurons: potent inhibitory activity

## CN(CCO)C(=O)Cc1ccccc1Nc1c(Cl)cccc1Cl [Compound 9]
KCNQ2/3 channels; CHO cells
  opener action on recombinant KCNQ2/3 channels (in words): only a weak opener action
Rat cortical neurons; 20 μM
  effect on evoked and spontaneous spiking activity of cortical neurons: inhibitory activity

## CCn1c(=O)[nH]c2ccccc21 [Compound 10, 1-ethyl benzimidazolone]
KCNQ2/3 channels; 100 μM, train protocol, cells stepped to −30 mV
  increase of the current amplitude: up to 57%

## O=C1N(c2ccccc2)c2ccccc2C1(Cc1ccncc1)Cc1ccncc1 [linopirdine]
Rat cortical neurons; 10 μM
  effect on spontaneous spiking activity: significantly enhanced the frequency of spontaneous spiking
[2]
  frequency of EPSCs: up to 278±41 % of control

## O=C1NC(=O)C(c2ccccc2)(c2ccccc2)N1 [phenyloin]
[1]; 20 mg/kg intraperitoneal, 30 minutes before electroshock
  protection from hind limb extension: fully prevented hind limb extension

## CCOC(=O)Nc1ccc(NCc2ccc(F)cc2)cc1N [retigabine, N-(2-amino-4-(4-fluorobenzylamino)-phenyl)carbamic acid ethyl ester]
Small DRG neurons
  effect on trains of evoked spikes: Very similar results
KCNQ2/Q3
  EC50: 2000 ± 1300 nM
KCNQ2/Q3; Hill fit, compound alone
  Hill coefficient ηH: 1.20±0.30
KCNQ2/Q3; increasing concentrations co-exposed with 25 μM meclofenamic acid
  maximum ΔV50: −32±4 mV

## CCCC(CCC)C(=O)[O-].[Na+] [sodium valproate]
[1]; 500 mg/kg intraperitoneal, 30 minutes before electroshock
  protection from hind limb extension: fully prevented hind limb extension
